This note sets out measurements from patent US20240252456A1, “ORAL COMPOSITION, SKIN COSMETIC AND HAIR COSMETIC” (MARUZEN PHARMACEUTICALS CO., LTD., priority 2021, published 2024).

Test [1] has as its system Mouse macrophage cells (RAW264.7). Briefly: Prostaglandin E2 (PGE2) production suppressive action test in mouse macrophages. It counts as cell-based. To be noted: RAW264.7, LPS 1 μg/mL, 16 hours. As for the experimental part:
Mouse macrophage cells (RAW264.7) were cultured using Dulbecco's modified Eagle's medium (DMEM) containing 10% FBS, and then the cells were collected using a cell scraper. The collected cells were diluted with DMEM containing 10% FBS to a concentration of 2.0×10^5 cells/mL, then seeded with 100 μL per well in a 96-well plate, and cultured for 18 hours.
After the culturing was completed, the medium was replaced with a medium containing 500 μmol/L aspirin and cultured for 4 hours in order to acetylate and inactivate the already existing COX-1 and the small amount of COX-2 expressed. After that, the cells were washed three times with PBS(−) buffer solution, 100 μL of the test sample (Sample 1, see Table 29 below for final concentration) dissolved in DMEM containing DMSO at a final concentration of 0.5% and 10% FBS was added to each well, then 100 μL of lipopolysaccharide (LPS) (available from DIFCO, E. coli 0111; B4) dissolved at a final concentration of 1 μg/mL in DMEM containing 10% FBS, and the cells were cultured for 16 hours. As a control, culturing was performed in the same manner using DMEM containing DMSO at a final concentration of 0.5% and 10% FBS to which no sample was added. After the culturing was completed, the amount of prostaglandin E2 in the culture supernatant of each well was determined using PGE2 EIA Kit (available from Cayman Chemical). From the obtained results, the PGE2 production suppression rate (%) was calculated using the following equation.
Terms in the equation represent the following respective ones. • A: PGE2 amount with test sample addition and with LPS stimulation • B: PGE2 amount without sample addition and with LPS stimulation • C: PGE2 amount without sample addition and without LPS stimulation

In the next test the test system is CLDN4 mRNA. As to the kind of experiment: Claudin-4 (CLDN4) mRNA expression promotive action test. Type of test: cell-based, human. The note with it: 100 μmol/L; NHEK, 24 hours, corrected with GAPDH. As for the experimental part: Normal human neonatal epidermal keratinocytes (NHEK) were precultured using normal human epidermal keratinocyte growth medium (KGM), and the cells were collected by a trypsin treatment. The collected cells were diluted with KGM to a cell density of 15×10^4 cells/mL, then seeded with 2 mL portions in a 6-well plate (30×10^4 cells/well), and cultured overnight under conditions of 37° C. and 5% CO2. After culturing, the medium was replaced with normal human epidermal keratinocyte basal medium (KBM, the above KGM without addition of growth additives (hEGF, BPE, insulin, antibacterial agents, hydrocortisone)), and culturing was further performed for 24 hours.
After culturing for 24 hours, the medium was removed, and 2 mL of the test sample (Sample 1, see Table 20 below for final concentrations) dissolved in KBM was added to each well, and culturing was performed under conditions of 37° C. and 5% CO2 for 24 hours. As a control, culturing was performed in the same manner using KBM to which no sample was added. After culturing, the medium was removed, total RNA was extracted using ISOGEN II (available from NIPPON GENE CO., LTD.), each RNA amount was measured using a spectrophotometer, and the total RNA was prepared so as to be 150 ng/μL.
For CLDN4 and GAPDH as an internal standard, the expression levels of mRNA were measured using the above total RNA as a template. […]

Test [2] relates to Normal human hair follicle dermal papilla cells (HFDPC). Briefly: Follicle dermal papilla cell proliferation promotive action test (MTT). It counts as cell-based. The note with it: 100 μmol/L, 4 days. As for the experimental part:
Normal human hair follicle dermal papilla cells (HFDPC, derived from the parietal region of a person) were cultured using follicle dermal papilla cell growth medium (PCGM, available from TOYOBO CO., LTD.) containing 1% FCS and growth additives, and then the cells were collected by a trypsin treatment. The collected cells were diluted to a cell density of 1.0×10^4 cells/mL using Dulbecco's modified Eagle's medium (DMEM) containing 10% FBS, then seeded with 200 μL per well in a collagen-coated 96-well plate, and cultured for 3 days.
After that, the medium was removed, 200 μL of the test sample (Sample 1, see Table 25 below for final concentration) dissolved in serum-free DMEM was added to each well, and culturing was further performed for 4 days. […] After the culturing was completed, the follicle dermal papilla cell proliferation promotive action was measured by MTT assay. […] The absorbance of this extract was measured at 570 nm giving the maximum absorption point of blue formazan. At the same time, the absorbance at a wavelength of 650 nm was measured as turbidity, and the difference between the two was determined as the production amount of blue formazan. From the measurement results, the follicle dermal papilla cell proliferation promotion rate (%) was calculated based on the following equation. […]

On to `O=C(O)CCc1ccc(O)c(O)c1` [Sample 1, 3,4-Dihydroxyhydrocinnamic acid], for which the “PGE2 production suppression rate” value in test [1] (31.25 μmol/L) turned out to be 17.9%; in test [1] (125 μmol/L), 17.7%; in test [1] (500 μmol/L), 41.3%. Further, in the test on CLDN4 mRNA, the “CLDN4 mRNA expression promotion rate” value is 489.7%. Further, the “Follicle dermal papilla cell proliferation promotion rate” value in test [2] is listed as 124.8%.
